Laboratory results published in patent US10434181B2, “Oligomer-containing benzamide-based compounds” (Nektar Therapeutics, priority 2012, dated 2019).
Where “and” joins values, the source holds several entries; their conditions need not be identical. Equal entries are not always repeated.

Experiments:
[1] = target: dopamine 2L receptors (Homo sapiens, UniProt P14416); assay: Competition binding assay (dopamine 2L receptors), [3H]methylspiperone; parameters: expressed in transfected cells; details: for Fold-change Relative to Parent: IC50 relative to metoclopramide, D2L binding; for IC50: [3H]methylspiperone competition, HEK 293 membranes expressing D2L, read-out: IC50
Method: [^3H] Methylspiperone was diluted in assay buffer to a final concentration of 0.4 nM. To start the assay, 1 uL of compound was added into 96-well v-bottom plates, followed by the addition of 50 uL of diluted membrane preparation, then finally diluted [^3H] Methylspiperone was added. The assay mixture was incubated for 60 minutes at room temperature with shaking. Following incubation, bound [^3H] methylspiperone on 5% PEI soaked GF/B filter plates using a Filtermate Harvester (Perkin Elmer) were then washed four times with ice cold wash buffer (50 mM Tris-HCl, pH 7.5). Filter plates were air dried for two minutes, and then 50 uL of MicroScint-20 was added into each well. Radioactivity counts were quantified using a Top Count plate reader (Perkin Elmer). Data was analyzed using one-site binding competition non-linear regression curve fitting on GraphPad Prism.

[2] = Chemical stability in potassium phosphate buffer; type: physicochemical; details: 100 mM potassium phosphate buffer, pH 7.4 at 37° C. for up to 30 minutes
Method: FIG. 5B is a plot of the results of a chemical stability study of test articles in a 100 mM potassium phosphate buffer, pH 7.4 at 37° C. for up to thirty minutes.

[3] = target: T1, 5HT4B receptors (serotonin 4B receptors) (Homo sapiens, UniProt Q13639); assay: Competition binding assay (serotonin 4B receptors), [3H]GR113808; details: for Fold-change Relative to Parent: IC50 relative to metoclopramide, 5HT4B binding; for IC50: [3H]GR113808 competition, HEK 293 membranes expressing 5HT4B
T1 construct: expressed in transfected cells

[4] = target: CYP2D6 (Homo sapiens, UniProt P10635); assay: Metabolic stability in human recombinant CYP2D6 enzyme; type: in vitro ADME; parameters: purchased Xenotech, LLC; details: 1 μM, 100 pmol/mL CYP2D6, up to 30 min, 37° C.
[5] = target: T2, dopamine 2S receptor (Homo sapiens, UniProt P14416); assay: β-Arrestin functional assay (dopamine), antagonist mode; type: cell-based; details: for Fold-change Relative to Parent: IC50 relative to metoclopramide, D2S β-arrestin; for IC50: β-arrestin interaction, CHO-K1 cells expressing D2S, dopamine at EC80 (400 nM)
T2 construct: host or cells: CHO-K1 (PathHunter eXpress β-arrestin cells)

[6] = target: T3, 5HT3A receptors (serotonin 3A receptors) (Homo sapiens, UniProt P46098); assay: Competition binding assay (serotonin 3A receptors), [3H]GR65630
T3 construct: expressed in transfected cells
T3 sequence (P46098 24-478): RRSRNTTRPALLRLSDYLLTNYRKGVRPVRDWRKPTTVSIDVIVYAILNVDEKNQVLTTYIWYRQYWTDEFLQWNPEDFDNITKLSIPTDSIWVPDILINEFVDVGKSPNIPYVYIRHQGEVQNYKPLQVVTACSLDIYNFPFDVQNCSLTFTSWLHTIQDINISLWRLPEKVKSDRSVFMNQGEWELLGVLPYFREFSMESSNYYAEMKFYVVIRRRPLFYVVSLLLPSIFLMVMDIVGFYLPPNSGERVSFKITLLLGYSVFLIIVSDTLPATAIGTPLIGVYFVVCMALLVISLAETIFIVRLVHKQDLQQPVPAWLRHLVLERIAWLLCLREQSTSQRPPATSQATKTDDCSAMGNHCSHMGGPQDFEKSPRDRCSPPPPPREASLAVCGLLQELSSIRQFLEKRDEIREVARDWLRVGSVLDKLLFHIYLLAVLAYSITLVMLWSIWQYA
Method: [^3H] […] To start the assay, 1 uL of compound was added into 96-well v-bottom plates, followed by the addition of 50 uL of diluted membrane preparation, then finally diluted [^3H] […] The assay mixture was incubated for 60 minutes at room temperature with shaking. Following incubation, bound [^3H] […] Filter plates were air dried for two minutes, and then 50 uL of MicroScint-20 was added into each well. Radioactivity counts were quantified using a Top Count plate reader (Perkin Elmer). Data was analyzed using one-site binding competition non-linear regression curve fitting on GraphPad Prism.

[7] = system: human hepatocytes; assay: MetID determination in human hepatocytes; type: in vitro ADME
Method: (§1) Cryopreserved human and Sprague-Dawley rat hepatocytes were thawed in a 37° C. water bath. […] Samples were obtained from separate plates for each time point during the incubation. At each sampling time, the plates were removed from the incubator, quenched by adding 100 μL cold acetonitrile, and placed in an ice bath until centrifugation at 4,000 rpm for 30 minutes at 4° C. Supernatants were stored at or below −70° C. until LC-MS/MS analysis could be conducted. The liquid chromatography system used was Agilent 1100 Autosampler, Binary Pump, DAD and Column Enclosure. Tandem mass spectrometry was conducted using a Thermo DECA XP MAX Ion Trap Mass Spectrometer. The ion source was Electrospray (+) and the LC column used was a Varian, Polaris 5 C18-A (250×2.1 mm, 5 micron) column.
(§2) Metabolic pathways of metoclopramide and conjugates were determined in rat and human hepatocytes. N-dealkylation was the major metabolic pathway for metoclopramide in rats, and metabolism in human hepatocytes was minimal. […] FIG. 2 and FIG. 3 show the metabolic pathway of for mPEG1-N-metoclopramide and mPEG4-N-metoclopramide, respectively. […] In this figure, different metabolites for each conjugate are denoted with the “M” and correspond to the designation provided in the figure for a given conjugate. For example, metabolite M1 for mPEG1-N-metoclopramide in Table 6 corresponds to M1 in FIG. 2, metabolite M2 for mPEG4-N-metoclopramide in Table 6 corresponds to M2 in FIG. 3 and metabolite M3 mPEG8-N-metoclopramide in Table 6 corresponds to M3 in FIG. 4.

[8] = in vivo; details: male, Sprague Dawley, rat, plasma; for AUC(0-inf) / MRT inf / Vd / clearance / half-life: iv, 0.5 mg/kg
Method: (§3) Rat pharmacokinetic (“PK”) characterization was conducted in male Sprague Dawley Rats (Rattus Norvegicus) weighing between 210-260 gm (Charles River Laboratories (Hollister, Calif.)). Rats were fed a standard diet and water was available ad-libidum at all times. […] Animals were dosed either orally (2.5 mg/Kg) via gavage or intravenously (0.5 mg/kg) via the jugular vein cannula. Blood samples (˜0.15 mL) were collected through carotid artery cannula at respective time points and transferred immediately into K2EDTA-coated tubes (that contain quenching media-acetic acid, PMSF and Dichlorvos) and placed on ice. The samples were centrifuged within thirty minutes after collection at 10,000 RPM for five minutes and the resulting plasma was separated. Plasma were transferred into microfuge tubes and placed on dry ice immediately. The plasma samples were stored at approximately −70° C. until shipped on dry ice for Bioanalysis by LC/MS/MS. Urine samples were collected using metabolic cages into a tube containing citric acid (4 mg for 0-4 and 4-8 hr interval and 16 mg for 8-24 hr interval) on wet ice at the intervals specified in the study design. After the completion of urine collection at each interval, each cage was rinsed with 2 mL of deionized water (1 mL each time). The rinse was collected in the separate labeled container (containing 2 mg of citric acid) as the urine. Following this rinse another 2 ml rinse was carried out with ethanol (1 ml each time). The rinse was also collected in the separate labeled container as the urine. Samples were stored frozen at −70° C. until bioanalysis by LC/MS/MS was performed.
(§4) Pharmacokinetic parameters were determined by non-compartmental analysis using Phoenix®WinNonlin® (Version 6.3; Pharsight Corp., Mountain View, Calif.). Nominal doses and sampling times were used for the analysis. Concentrations reported as BLQ were treated as missing unless they were pre-dose; then they were set to zero. Maximum plasma concentration (Cmax) and time of observed maximum plasma analyte concentration (Tmax) were generated by Phoenix®WinNonlin®, directly from the inputed dataset. […] Area under the plasma concentration-time curve from time 0 to infinity (AUCinf) was calculated as the sum of AUClast and the last observed concentration divided by k. Total plasma clearance (CL) was calculated as Dose/AUCinf. Apparent volume of distribution at steady state (Vss) was calculated as MRTinf*CL, where MRT is the mean residence time.

[9] = system: Sprague-Dawley rat hepatocytes; assay: MetID determination in rat hepatocytes; type: in vitro ADME; details: for major metabolic pathway: rat hepatocytes
Method: as §1, §2

[10] = Rat PK (intravenous and oral); details: for CLRen: intravenous, 0.5 mg/kg; for Clast / Tlast: oral gavage, 2.5 mg/Kg
Method: as §3, §4

[11] = target: serotonin 4 receptor (5HT4) (Homo sapiens, UniProt Q13639); assay: cAMP accumulation assay (serotonin 4 receptors); type: cell-based; details: for Fold-change Relative to Parent: IC50 relative to metoclopramide, 5HT4 cAMP; for IC50: cAMP accumulation, CHO-K1 cells stably expressing 5HT4
[12] = incubation of 10 μM mPEG8-N-metoclopramide, parent and its metabolites M (FIG. 4)
[13] = incubation of 10 μM mPEG1-N-metoclopramide, parent and its metabolites M (FIG. 2)
[14] = incubation of 10 μM mPEG4-N-metoclopramide, parent and its metabolites M (FIG. 3)

Sequence of dopamine 2L receptors (P14416 whole entry): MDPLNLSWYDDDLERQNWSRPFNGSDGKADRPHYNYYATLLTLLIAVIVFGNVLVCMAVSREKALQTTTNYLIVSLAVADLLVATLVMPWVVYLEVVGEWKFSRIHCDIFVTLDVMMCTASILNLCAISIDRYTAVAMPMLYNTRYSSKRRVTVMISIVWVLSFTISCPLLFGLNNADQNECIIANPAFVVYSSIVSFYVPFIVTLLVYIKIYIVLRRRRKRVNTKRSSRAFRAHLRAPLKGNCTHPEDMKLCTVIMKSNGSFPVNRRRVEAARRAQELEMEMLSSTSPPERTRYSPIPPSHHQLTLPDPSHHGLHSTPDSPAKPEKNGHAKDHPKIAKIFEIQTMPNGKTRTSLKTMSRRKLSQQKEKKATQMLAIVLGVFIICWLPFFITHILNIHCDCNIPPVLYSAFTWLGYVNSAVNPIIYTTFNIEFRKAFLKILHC
T2 sequence (P14416 1-414 isoform P14416-2): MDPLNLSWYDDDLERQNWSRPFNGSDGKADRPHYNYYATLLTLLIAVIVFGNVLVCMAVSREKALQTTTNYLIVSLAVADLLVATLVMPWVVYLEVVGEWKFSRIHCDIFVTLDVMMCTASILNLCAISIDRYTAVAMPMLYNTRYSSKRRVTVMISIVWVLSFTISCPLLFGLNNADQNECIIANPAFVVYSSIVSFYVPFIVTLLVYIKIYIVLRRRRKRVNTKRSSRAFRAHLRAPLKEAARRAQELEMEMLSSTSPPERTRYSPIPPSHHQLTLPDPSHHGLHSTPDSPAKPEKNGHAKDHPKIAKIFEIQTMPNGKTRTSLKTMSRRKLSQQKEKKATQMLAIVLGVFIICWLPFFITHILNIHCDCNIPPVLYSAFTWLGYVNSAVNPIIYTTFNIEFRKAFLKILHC
T1 sequence (Q13639 whole entry): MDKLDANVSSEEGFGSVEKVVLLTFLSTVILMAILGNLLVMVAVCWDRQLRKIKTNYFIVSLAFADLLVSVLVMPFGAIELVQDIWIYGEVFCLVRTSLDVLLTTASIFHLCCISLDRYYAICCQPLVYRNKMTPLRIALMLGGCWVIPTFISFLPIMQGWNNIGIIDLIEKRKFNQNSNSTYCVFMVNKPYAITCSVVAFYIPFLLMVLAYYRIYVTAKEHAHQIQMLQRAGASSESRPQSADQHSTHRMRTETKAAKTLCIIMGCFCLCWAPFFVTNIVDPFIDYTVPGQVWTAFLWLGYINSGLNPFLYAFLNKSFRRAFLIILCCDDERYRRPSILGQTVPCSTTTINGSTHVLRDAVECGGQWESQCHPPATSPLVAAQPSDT
Sequence of serotonin 4 receptor (5HT4) (Q13639 whole entry, species assumed): as the sequence (Q13639 whole entry) above
Sequence of CYP2D6 (P10635 whole entry): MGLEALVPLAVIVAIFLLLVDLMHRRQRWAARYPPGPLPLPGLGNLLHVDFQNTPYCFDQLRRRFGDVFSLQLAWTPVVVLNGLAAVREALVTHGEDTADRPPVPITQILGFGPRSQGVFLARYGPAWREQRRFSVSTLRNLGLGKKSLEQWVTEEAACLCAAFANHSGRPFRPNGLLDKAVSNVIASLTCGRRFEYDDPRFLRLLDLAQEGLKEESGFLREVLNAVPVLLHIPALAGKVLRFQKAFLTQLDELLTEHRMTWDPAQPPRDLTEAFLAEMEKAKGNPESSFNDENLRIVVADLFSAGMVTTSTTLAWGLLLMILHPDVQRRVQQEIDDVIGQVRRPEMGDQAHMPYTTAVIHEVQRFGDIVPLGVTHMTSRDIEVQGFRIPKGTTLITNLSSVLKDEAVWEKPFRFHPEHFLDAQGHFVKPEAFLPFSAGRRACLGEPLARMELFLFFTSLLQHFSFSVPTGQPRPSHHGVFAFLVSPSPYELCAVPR

| SMILES | Fold-change Relative to Parent [1] | IC50 [1] | Fold-change Relative to Parent [3] | IC50 [3] | Fold-change Relative to Parent [5] | IC50 [5] | extent of metabolism in human hepatocytes [7] | AUC(0-inf) [8] | MRT inf [8] | Vd [8] | clearance [8] | half-life [8] | major metabolic pathway [9] | CLRen [10] | also measured |
| --- | --- | --- | --- | --- | --- | --- | --- | --- | --- | --- | --- | --- | --- | --- | --- |
| CCN(CCNC(=O)c1cc(Cl)c(N)cc1OC)CCOCCOCCOCCOCCOCCOC [mPEG6-N-Metoclopramide] | 92.1 | 7.75 µM | 3.8 | 57.8 µM | 52.05 | 4.27 µM and 4.28 µM | – | – | – | – | – | – | – | – | chemical stability [2]: chemically stable; metabolism by human recombinant CYP2D6 enzyme [4]: to a lesser degree than metoclopramide; Fold-change Relative to Parent ([6]; IC50 relative to metoclopramide, 5HT3A binding): 129; IC50 ([6]; [3H]GR65630 competition, HEK 293 membranes expressing 5HT3A, read-out: IC50): 885 µM |
| CCN(CCNC(=O)c1cc(Cl)c(N)cc1OC)CCOCCOCCOCCOCCOCCOCCOCCOC [mPEG8-N-Metoclopramide] | 80.7 | 6.79 µM | 11.9 | 181 µM | 67.4 | 5.53 µM and 5.54 µM | only minor metabolism | 98.3 ng·h/mL | 146 min | 17.8 L/kg | 84.4 mL/min/kg | 145 min | PEG chain modification | 0.54 mL/min/kg | % of Total Metabolism, Human Hep 1 hr [7, 12]: 100%; % of Total Metabolism, Human Hep 4 hr [7, 12]: 94.8%; N-dealkylation compared with metoclopramide ([9]; hepatocytes): less compared with metoclopromide; % of Total Metabolism, Rat Hep 1 hr [9, 12]: 83%; % of Total Metabolism, Rat Hep 4 hr [9, 12]: 43.5% |
| CCN(CCNC(=O)c1cc(Cl)c(N)cc1OC)CCOCCOC [mPEG2-N-Metoclopramide] | 16.1 | 1.36 µM | 2.0 | 29.7 µM | 9.57 | 0.786 µM | – | – | – | – | – | – | – | – | – |
| CCN(CCNC(=O)c1cc(Cl)c(N)cc1OC)CCOCCOCCOCCOCCOCCOCCOCCOCCOC [mPEG9-N-Metoclopramide] | 131.9 | 11.1 µM | 13.3 | 202 µM | 87.86 | 7.22 µM | – | – | – | – | – | – | – | – | Fold-change Relative to Parent ([5]; listed as mPEG9-N-metoclopramide): 87.6 |
| CCN(CCNC(=O)c1cc(Cl)c(N)cc1OC)CCOC [mPEG1-N-Metoclopramide] | 2.8 | 0.233 µM | 1.3 | 19.7 µM | 4.19 | 0.345 µM | low metabolism | 88.3 ng·h/mL | 27.6 min | 2.84 L/kg | 101 mL/min/kg | 39 min | N-dealkylation | 4.4 mL/min/kg | % of Total Metabolism, Human Hep 1 hr [7, 13]: 86.5%; % of Total Metabolism, Human Hep 4 hr [7, 13]: 90.2%; Fold-change Relative to Parent [11]: 1.5; IC50 [11]: 1.59 µM; AUC ([8]; po, 2.5 mg/kg): 24.2 ng·h/mL; CL/F ([8]; po, 2.5 mg/kg): 1550 mL/min/kg; Cmax ([8]; po, 2.5 mg/kg): 33.2 ng/mL; Tmax ([8]; po, 2.5 mg/kg): 4.8 min; bioavailability ([8]; po, 2.5 mg/kg): 6.25%; % of Total Metabolism, Rat Hep 1 hr [9, 13]: 32.7%; % of Total Metabolism, Rat Hep 4 hr [9, 13]: <1.0%; Clast [10]: 4.39 ng/mL; Tlast [10]: 2.5 h |
| CCN(CCNC(=O)c1cc(Cl)c(N)cc1OC)CCOCCOCCOCCOCCOCCOCCOC [mPEG7-N-Metoclopramide] | 137.3 | 11.6 µM | 8.8 | 133 µM | 99.57 | 8.18 µM | – | – | – | – | – | – | – | – | – |
| CCN(CCNC(=O)c1cc(Cl)c(N)cc1OC)CCOCCOCCOCCOC [mPEG4-N-Metoclopramide] | 38.7 | 3.26 µM | 2.0 | 30.7 µM | 37.03 | 3.04 µM | low metabolism | 63.5 ng·h/mL | 33.6 min | 7.17 L/kg | 133 mL/min/kg | 39 min | N-dealkylation | 9.0 mL/min/kg | % of Total Metabolism, Human Hep 1 hr [7, 14]: 100%; % of Total Metabolism, Human Hep 4 hr [7, 14]: 93.7%; Fold-change Relative to Parent [11]: 0.62; IC50 [11]: 0.644 µM and 0.64 µM; AUC ([8]; po, 2.5 mg/kg): 41.4 ng·h/mL; Cmax ([8]; po, 2.5 mg/kg): 16.6 ng/mL; Tmax ([8]; po, 2.5 mg/kg): 120 min; bioavailability ([8]; po, 2.5 mg/kg): 14.5%; % of Total Metabolism, Rat Hep 1 hr [9, 14]: 61.5%; % of Total Metabolism, Rat Hep 4 hr [9, 14]: 16.1%; Clast [10]: 3 ng/mL; Tlast [10]: 5 h |
